What all share (assay type): in vivo
The test system of test [1] is Barnyard grass. Briefly: pre-emergent herbicidal activity test. Here is the method: (§1) Table II summarizes results of tests conducted to determine the pre-emergent as well as the post-emergent herbicidal activity of the compounds. The pre-emergent test was conducted as follows:
(§2) A good grade of top soil was placed in aluminum pans and compacted to a depth of three-eighths to one-half inch from the top of the pan. On the top of the soil was placed a predetermined number of seeds or vegetative propagules of various plant species. The soil required to level fill the pans after seeding or adding vegetative propagules was weighed into a pan. A known amount of the active ingredient applied in a solvent or as a wettable powder and the soil were thoroughly mixed, and used as a cover layer for prepared pans. After treatment the pans were moved into a greenhouse bench where they were watered from below as needed to give adequate moisture for germination and growth.
(§3) A herbicial rating code was used to signify the extent of phytotoxicity of each species. The rating are defined as follows: […]

The subject of test [2] is Bromus tectorum. Briefly: pre-emergent herbicidal activity test. Here is the method: as §1, §2, §3
The subject of test [3] is Canada Thistle. In words: pre-emergent herbicidal activity test. Here is the method:
as §1, §2, §3

Test [4] relates to Cocklebur. Briefly: pre-emergent herbicidal activity test. Here is the method: as §1, §2, §3
Test [5] deals with Johnsongrass. Briefly: pre-emergent herbicidal activity test. Here is the method: as §1, §2, §3
Test [6] has as its system Lambsquarter. In words: pre-emergent herbicidal activity test. Here is the method:
as §1, §2, §3

In test [7] the test system is Morningglory. Briefly: pre-emergent herbicidal activity test. Here is the method:
as §1, §2, §3

Test [8] concerns Nutsedge. Briefly: pre-emergent herbicidal activity test. Here is the method: as §1, §2, §3
Test [9] has as its system Quackgrass. In words: pre-emergent herbicidal activity test. Here is the method:
as §1, §2, §3

Test [10] concerns Smartweed. In words: pre-emergent herbicidal activity test. Here is the method: as §1, §2, §3
Test [11] deals with Velvetleaf. In words: pre-emergent herbicidal activity test. Here is the method:
as §1, §2, §3

For test [12], the system named is Barnyard grass. Briefly: post-emergent herbicidal activity test. Here is the method: (§4) The post-emergent tests were conducted as follows. The active ingredients are applied in spray form to two or three-week old specimens of various plant species. The spray, a solution or wettable powder suspension containing the appropriate rate of active ingredient to give the desired test rate and a surfactant, is applied to the plants. The treated plants are placed in a greenhouse and unless otherwise noted approximately four weeks later the effects are observed and recorded.

Test [13] deals with Bromus tectorum. In words: post-emergent herbicidal activity test. Here is the method:
as §4

The subject of test [14] is Canada Thistle. Briefly: post-emergent herbicidal activity test. Here is the method:
as §4

In test [15] the test system is Cocklebur. In words: post-emergent herbicidal activity test. Here is the method:
as §4

The subject of test [16] is Johnsongrass. In words: post-emergent herbicidal activity test. Here is the method:
as §4

Test [17] has as its system Lambsquarter. Briefly: post-emergent herbicidal activity test. Here is the method:
as §4

In test [18] the test system is Morningglory. Briefly: post-emergent herbicidal activity test. Here is the method:
as §4

For test [19], the system named is Nutsedge. Briefly: post-emergent herbicidal activity test. Here is the method: as §4
Test [20] relates to Quackgrass. Briefly: post-emergent herbicidal activity test. Here is the method:
as §4

Test [21] concerns Smartweed. Briefly: post-emergent herbicidal activity test. Here is the method: as §4
Test [22] relates to Velvetleaf. In words: post-emergent herbicidal activity test. Here is the method:
as §4

Where [23] appears, read: *11.2 Kg/Ha, observed approximately 14 days after treatment.
Where [24] appears, read: 11.2 Kg/Ha, approximately 28 days after seeding and treating.
[25] abbreviates: 11.2 Kg/Ha, approximately four weeks later.

Three compounds from patent publication US4245106A, “Process for the preparation of 1-alkyl-3-aryl-4-pyrazolecarboxylates” (Monsanto Company, priority 1979, dated 1981) can be followed below.

Molecules are shown by their SMILES.
Further: ranges in brackets are in %.

Consider `Cn1cc(C(=O)OCCOc2ccccc2)c(-c2cccc(C(F)(F)F)c2)n1` [Example 22], for which the “Pre-Emergent herbicidal rating, K Barnyard grass” value in the test with Barnyard grass [1] (setting [23]) is 0 (0-24). Also, the “Pre-Emergent herbicidal rating, J Bromus tectorum” value in the test with Bromus tectorum [2] (setting [23]) is 0 (0-24). In the test with Canada Thistle [3] (setting [23]), the “Pre-Emergent herbicidal rating, A Canada Thistle” value was 3 (75-100). Moreover, the “Pre-Emergent herbicidal rating, B Cocklebur” value with Cocklebur [4] (setting [23]) is on record as 0 (0-24). The “Pre-Emergent herbicidal rating, I Johnsongrass” value with Johnsongrass [5] (setting [23]) is 0 (0-24). The “Pre-Emergent herbicidal rating, E Lambsquarter” value with Lambsquarter [6] (setting [23]) was 3 (75-100). Besides, the “Pre-Emergent herbicidal rating, D Morningglory” value in the test with Morningglory [7] (setting [23]) was 1 (25-49). Also, in the test with Nutsedge [8] (setting [23]), the “Pre-Emergent herbicidal rating, G Nutsedge” value was 0 (0-24). In addition, the “Pre-Emergent herbicidal rating, H Quackgrass” value in the test with Quackgrass [9] (setting [23]) is reported as 0 (0-24). The “Pre-Emergent herbicidal rating, F Smartweed” value in the test on Smartweed [10] (setting [23]) is on record as 0 (0-24). For the same compound, the “Pre-Emergent herbicidal rating, C Velvetleaf” value in the test on Velvetleaf [11] (setting [23]) was 0 (0-24). Also, in the test on Barnyard grass [12] (setting [23]), the “Post-Emergent herbicidal rating, K Barnyard grass” value is recorded as 0 (0-24). For the same compound, the “Post-Emergent herbicidal rating, J Bromus tectorum” value in the test with Bromus tectorum [13] (setting [23]) is 0 (0-24). Also, the “Post-Emergent herbicidal rating, A Canada Thistle” value in the test on Canada Thistle [14] (setting [23]) was 1 (25-49). In addition, in the test on Cocklebur [15] (setting [23]), the “Post-Emergent herbicidal rating, B Cocklebur” value is 0 (0-24). Moreover, the “Post-Emergent herbicidal rating, I Johnsongrass” value in the test with Johnsongrass [16] (setting [23]) is listed as 0 (0-24). In the test on Lambsquarter [17] (setting [23]), the “Post-Emergent herbicidal rating, E Lambsquarter” value was 0 (0-24). The “Post-Emergent herbicidal rating, D Morningglory” value in the test with Morningglory [18] (setting [23]) is 0 (0-24). For the same compound, in the test on Nutsedge [19] (setting [23]), the “Post-Emergent herbicidal rating, G Nutsedge” value is on record as 0 (0-24). In the test with Quackgrass [20] (setting [23]), the “Post-Emergent herbicidal rating, H Quackgrass” value is 0 (0-24). For the same compound, the “Post-Emergent herbicidal rating, F Smartweed” value with Smartweed [21] (setting [23]) is listed as 0 (0-24). For the same compound, in the test with Velvetleaf [22] (setting [23]), the “Post-Emergent herbicidal rating, C Velvetleaf” value is 0 (0-24).
In the case of `CCSCCOC(=O)c1cn(C)nc1-c1cccc(C(F)(F)F)c1` [Example 23], the “Pre-Emergent herbicidal rating, K Barnyard grass” value with Barnyard grass [1] (setting [23]) was 1 (25-49). Also, in the test with Bromus tectorum [2] (setting [23]), the “Pre-Emergent herbicidal rating, J Bromus tectorum” value was 1 (25-49). Further, in the test on Canada Thistle [3] (setting [23]), the “Pre-Emergent herbicidal rating, A Canada Thistle” value was 0 (0-24). In addition, the “Pre-Emergent herbicidal rating, B Cocklebur” value in the test on Cocklebur [4] (setting [23]) is on record as 0 (0-24). Also, in the test with Johnsongrass [5] (setting [23]), the “Pre-Emergent herbicidal rating, I Johnsongrass” value is recorded as 0 (0-24). Further, in the test with Lambsquarter [6] (setting [23]), the “Pre-Emergent herbicidal rating, E Lambsquarter” value is on record as 3 (75-100). In the test on Morningglory [7] (setting [23]), the “Pre-Emergent herbicidal rating, D Morningglory” value is listed as 1 (25-49). The “Pre-Emergent herbicidal rating, G Nutsedge” value in the test with Nutsedge [8] (setting [23]) is given as 0 (0-24). In addition, in the test on Quackgrass [9] (setting [23]), the “Pre-Emergent herbicidal rating, H Quackgrass” value is on record as 0 (0-24). The “Pre-Emergent herbicidal rating, F Smartweed” value in the test with Smartweed [10] (setting [23]) is recorded as 1 (25-49). In addition, the “Pre-Emergent herbicidal rating, C Velvetleaf” value in the test with Velvetleaf [11] (setting [23]) is given as 1 (25-49). The “Post-Emergent herbicidal rating, K Barnyard grass” value in the test with Barnyard grass [12] (setting [23]) is 1 (25-49). In addition, the “Post-Emergent herbicidal rating, J Bromus tectorum” value with Bromus tectorum [13] (setting [23]) was 0 (0-24). In addition, the “Post-Emergent herbicidal rating, A Canada Thistle” value in the test with Canada Thistle [14] (setting [23]) was 1 (25-49). Further, in the test on Cocklebur [15] (setting [23]), the “Post-Emergent herbicidal rating, B Cocklebur” value is listed as 1 (25-49). For the same compound, the “Post-Emergent herbicidal rating, I Johnsongrass” value in the test with Johnsongrass [16] (setting [23]) is 0 (0-24). Also, in the test with Lambsquarter [17] (setting [23]), the “Post-Emergent herbicidal rating, E Lambsquarter” value was 2 (50-74). For the same compound, in the test on Morningglory [18] (setting [23]), the “Post-Emergent herbicidal rating, D Morningglory” value was 1 (25-49). The “Post-Emergent herbicidal rating, G Nutsedge” value in the test with Nutsedge [19] (setting [23]) was 0 (0-24). Moreover, the “Post-Emergent herbicidal rating, H Quackgrass” value in the test with Quackgrass [20] (setting [23]) is recorded as 1 (25-49). The “Post-Emergent herbicidal rating, F Smartweed” value in the test on Smartweed [21] (setting [23]) was 1 (25-49). Also, the “Post-Emergent herbicidal rating, C Velvetleaf” value with Velvetleaf [22] (setting [23]) is 1 (25-49).
As to `CCCCOC(=O)c1cn(C)nc1-c1cccc(C(F)(F)F)c1` [Example 30], in the test with Barnyard grass [1] (setting [24]), the “Pre-Emergent herbicidal rating, K Barnyard grass” value is 3 (75-100). Also, the “Pre-Emergent herbicidal rating, J Bromus tectorum” value in the test with Bromus tectorum [2] (setting [24]) was 2 (50-74). Also, the “Pre-Emergent herbicidal rating, A Canada Thistle” value in the test on Canada Thistle [3] (setting [24]) is reported as 2 (50-74). Besides, in the test on Cocklebur [4] (setting [24]), the “Pre-Emergent herbicidal rating, B Cocklebur” value is listed as 0 (0-24). Besides, the “Pre-Emergent herbicidal rating, I Johnsongrass” value with Johnsongrass [5] (setting [24]) is on record as 0 (0-24). Further, the “Pre-Emergent herbicidal rating, E Lambsquarter” value in the test with Lambsquarter [6] (setting [24]) is reported as 3 (75-100). The “Pre-Emergent herbicidal rating, D Morningglory” value in the test on Morningglory [7] (setting [24]) is on record as 0 (0-24). Also, the “Pre-Emergent herbicidal rating, G Nutsedge” value in the test with Nutsedge [8] (setting [24]) is 0 (0-24). Besides, in the test on Quackgrass [9] (setting [24]), the “Pre-Emergent herbicidal rating, H Quackgrass” value is given as 0 (0-24). The “Pre-Emergent herbicidal rating, F Smartweed” value with Smartweed [10] (setting [24]) is on record as 3 (75-100). Also, in the test on Velvetleaf [11] (setting [24]), the “Pre-Emergent herbicidal rating, C Velvetleaf” value is given as 1 (25-49). Further, the “Post-Emergent herbicidal rating, K Barnyard grass” value in the test on Barnyard grass [12] (setting [25]) is 1 (25-49). Also, the “Post-Emergent herbicidal rating, J Bromus tectorum” value in the test with Bromus tectorum [13] (setting [25]) is listed as 1 (25-49). The “Post-Emergent herbicidal rating, A Canada Thistle” value with Canada Thistle [14] (setting [25]) is listed as 0 (0-24). For the same compound, the “Post-Emergent herbicidal rating, B Cocklebur” value in the test with Cocklebur [15] (setting [25]) is reported as 1 (25-49). Also, the “Post-Emergent herbicidal rating, I Johnsongrass” value in the test on Johnsongrass [16] (setting [25]) is given as 1 (25-49). The “Post-Emergent herbicidal rating, E Lambsquarter” value in the test with Lambsquarter [17] (setting [25]) is reported as 3 (75-99). The “Post-Emergent herbicidal rating, D Morningglory” value with Morningglory [18] (setting [25]) is listed as 1 (25-49). In addition, in the test on Nutsedge [19] (setting [25]), the “Post-Emergent herbicidal rating, G Nutsedge” value is recorded as 0 (0-24). Besides, the “Post-Emergent herbicidal rating, H Quackgrass” value with Quackgrass [20] (setting [25]) was 0 (0-24). The “Post-Emergent herbicidal rating, F Smartweed” value in the test on Smartweed [21] (setting [25]) is 0 (0-24). Further, the “Post-Emergent herbicidal rating, C Velvetleaf” value in the test with Velvetleaf [22] (setting [25]) is given as 1 (25-49).
